According to patent publication US20120190707A1, “SELECTIVE INHIBITORS OF AKT AND METHODS OF USING SAME” (priority 2008, published 2012):

How the values were obtained:
CHK2 = CHK2 (Homo sapiens, UniProt O96017); test: Invitrogen SelectScreen Kinase Profiling Service; format: biochemical
Experimental: In addition to its inhibition of AKT, BI-69A11 was tested for inhibition of additional protein kinases using the Invitrogen SelectScreen Kinase Profiling Service. The Ser/Thr protein kinase, Checkpoint Kinase 2 (CHK2), is an important component in the cellular response to DNA damage. In response to genotoxic stresses such as g-irradiation, which causes double stranded DNA breaks, the Ataxia Telangiectasia Mutated (ATM) protein kinase is activated, which in turn phosphorylates a number of downstream effectors, such as CHK2. Activation of the ATM-CHK2 axis enforces the DNA damage checkpoint response, halting the cell cycle in order to initiate DNA repair.
To accomplish this, we g-irradiated vehicle- or BI69A11-treated cells and examined ATM and CHK2 phosphorylation, a well-characterized surrogate of activation (FIG. 13). In vehicle-treated cells, g-irradiation led to the robust phosphorylation of ATM and CHK2.

Abl1 = Abl1 (Homo sapiens, UniProt P00519); test: Non related protein kinase Abl1 inhibition; format: biochemical; details: concentrations up to 100 μM
From the text: In addition, we tested our compounds against a non related protein kinase, Abl1 (22), which is a tyrosine kinase under investigation in our laboratory.
(§1) We recently reported on the direct evaluation of a number of in silico approaches to identify AKT inhibitors (Forino et al., 2005) We achieved experimental validation of selected compounds using both a fluorescence-based enzymatic assay and a substrate phosphorylation assay involving the protein GSK-3 (Forino et al., 2005). Briefly, the virtual docking approach consists of selecting the top 4,000 out of 50,000 docked compounds, using a variety of computational docking approaches, including a consensus score among two different scoring functions (Forino et al., 2005). Of those, 100 compounds were selected based on ranking and favorable docking geometry.

JNK = test: Activity of other protein kinases: JNK; format: biochemical; details: 100 micro.M
From the text: as §1

AKT transcripts = test: QPCR analysis of AKT transcripts in melanoma cells; format: cell-based; details: data not shown
From the text: Given the effect of BI-69A11 on the level of AKT protein, we assessed the possible mechanisms underlying such an effect. First, we assessed whether BI-69A11 affects the level of AKT transcripts. RNA prepared from the melanoma cells, with and without treatment with BI-69A11, was subjected to QPCR analysis.

AKT = test: pAKT473 and total AKT by western analysis in 29-1 (PTEN+) cells; format: cell-based, human; details: 29-1 cells
Experimental: FIG. 6 describes the effect of BI-69A11 on phosphorylation and total levels of AKT in UACC 903 (PTEN−) cells. (A) UACC903 and the modified clone 29-1 (PTEN+) cells were exposed to 10 micro.M BI-69A11 and 50 micro.M LY294002 (a PI3K inhibitor) and the levels of pAKT473 and total AKT determined by western analysis. […] (SF=Serum Free). (B) BI-69A11 inhibits PRAS40 phosphorylation. UACC903 melanoma cells or 29-1 cells (PTEN+) were subjected to treatment with IGF-1 (20 ng/mL) and the level of PRAS40 phosphorylation was assessed. […] The cells were collected, lysed and levels of pPRAS40 and total PRAS40 determined by western analysis. (C) AKT association with HSP90 is inhibited by BI-69A11. Human melanoma cells were treated with BI-69A11 (10.micro.M) or DMSO control for 4 h, followed by protein preparation and immunoprecipitation using antibodies to pan-AKT. MG132 treatment, when used, initiated 1 h prior to treatment and lasted up to the preparation of proteins (total of 5 h). The right panel depicts analysis of total lysates.
The term “cell lines”, as used herein, unless otherwise indicated, refer to UACC 903 cells and 29-1 cells. The cells were cultured in DMEM, supplemented with 10% FBS and maintained at 37° C. in 5% CO2. Cells were plated to 75% confluency and grown overnight at 37° C. […]

UACC903 melanoma cells = test: CellTiter Blue Cell Viability Assay in UACC903 cells; format: cell-based, human; details: 24 h post-treatment
Experimental: UACC903 melanoma cells were treated with vehicle (0 μM) or the indicated concentrations of BI-69A11, BI-83G10, or BI-98C11. 24 h post-treatment, cell viability was determined using the CellTiter Blue Cell Viability Assay (Promega, Madison Wis.) following the manufacturer's directions.

p53 = test: Levels of HSP90 client protein p53; format: cell-based; details: data not shown
From the text: Among cellular proteins implicated in the regulation of AKT levels is the cellular chaperone HSP90. Inhibition of HSP90 chaperone function, as commonly achieved by the geldanamycin antibiotic, interferes with the conformational maturation and refolding of its associated proteins, thereby promoting their degradation (Munster et al., 2002; Neckers and Neckers, 2003). […] Thus we assessed whether association of AKT with HSP90 could be affected by BI-69A11. Immunoprecipitation of AKT from melanoma cells identified HSP90 in the immunoprecipitated material. Such association was however abolished following treatment with the BI-69A11 inhibitor (FIG. 6C). […] To this end, we also performed the experiment in the presence of the proteasome inhibitor MG132.

Chain of Abl1 (P00519 whole entry, species assumed): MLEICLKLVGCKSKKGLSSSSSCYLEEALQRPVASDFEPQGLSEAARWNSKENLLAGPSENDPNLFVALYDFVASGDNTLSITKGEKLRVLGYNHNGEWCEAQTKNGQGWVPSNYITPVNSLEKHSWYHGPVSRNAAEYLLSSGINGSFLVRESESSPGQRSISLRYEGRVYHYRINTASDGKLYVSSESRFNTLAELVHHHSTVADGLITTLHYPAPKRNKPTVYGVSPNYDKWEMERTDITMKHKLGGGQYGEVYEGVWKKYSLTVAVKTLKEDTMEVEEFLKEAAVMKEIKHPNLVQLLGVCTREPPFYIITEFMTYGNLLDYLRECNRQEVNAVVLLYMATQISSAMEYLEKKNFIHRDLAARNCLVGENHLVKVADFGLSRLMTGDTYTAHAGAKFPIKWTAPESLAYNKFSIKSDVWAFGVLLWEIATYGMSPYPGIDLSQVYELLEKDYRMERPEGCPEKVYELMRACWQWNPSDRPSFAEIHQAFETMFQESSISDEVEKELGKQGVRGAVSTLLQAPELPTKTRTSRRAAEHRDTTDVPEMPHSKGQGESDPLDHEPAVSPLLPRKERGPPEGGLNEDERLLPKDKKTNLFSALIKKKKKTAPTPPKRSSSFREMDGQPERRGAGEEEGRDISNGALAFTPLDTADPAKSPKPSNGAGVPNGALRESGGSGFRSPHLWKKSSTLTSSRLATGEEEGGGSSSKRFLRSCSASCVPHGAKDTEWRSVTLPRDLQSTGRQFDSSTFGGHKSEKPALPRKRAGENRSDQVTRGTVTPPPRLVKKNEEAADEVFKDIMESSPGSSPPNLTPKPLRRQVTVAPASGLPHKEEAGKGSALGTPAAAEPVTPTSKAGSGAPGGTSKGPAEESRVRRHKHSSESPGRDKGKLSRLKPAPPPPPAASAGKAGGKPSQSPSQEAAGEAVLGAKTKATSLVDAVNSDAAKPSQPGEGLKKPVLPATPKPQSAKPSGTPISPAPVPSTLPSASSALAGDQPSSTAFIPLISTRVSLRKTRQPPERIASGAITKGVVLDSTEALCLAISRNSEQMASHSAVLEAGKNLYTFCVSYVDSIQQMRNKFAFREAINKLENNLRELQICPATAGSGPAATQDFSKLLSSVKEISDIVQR
Chain of CHK2 (O96017 whole entry): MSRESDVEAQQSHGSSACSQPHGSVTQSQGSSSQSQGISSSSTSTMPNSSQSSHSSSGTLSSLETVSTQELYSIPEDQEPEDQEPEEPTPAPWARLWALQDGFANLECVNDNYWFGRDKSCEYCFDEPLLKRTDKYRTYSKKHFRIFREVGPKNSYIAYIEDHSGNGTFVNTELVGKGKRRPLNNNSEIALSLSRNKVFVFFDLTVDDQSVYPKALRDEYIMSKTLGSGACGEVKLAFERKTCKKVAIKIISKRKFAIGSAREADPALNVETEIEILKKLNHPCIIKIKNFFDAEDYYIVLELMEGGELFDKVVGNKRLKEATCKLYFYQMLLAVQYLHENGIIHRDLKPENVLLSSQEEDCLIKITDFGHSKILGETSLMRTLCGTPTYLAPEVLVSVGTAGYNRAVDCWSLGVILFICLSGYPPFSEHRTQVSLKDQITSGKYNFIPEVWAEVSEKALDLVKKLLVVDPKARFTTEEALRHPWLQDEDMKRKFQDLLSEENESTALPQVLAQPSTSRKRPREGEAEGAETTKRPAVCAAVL

## O=C(/C=C/c1nc2ccccc2[nH]1)c1c(O)nc2ccc(Cl)cc2c1-c1ccccc1 [Compound 2, (E)-3-(3-(1H-benzo[d]imidazol-2-yl)acryloyl)-6-chloro-4-phenylquinolin-2(1H)-one]
CHK2
  kinase profiling result for CHK2: possible target
Abl1
  inhibition of Abl1: did not affect
JNK
  effect on JNK activity: did not affect
AKT transcripts
  level of AKT transcripts: did not identify differences
AKT
  AKT phosphorylation: limited to no effect
AKT; 10 micro.M, increasing time after treatment
  levels of total AKT: reduced levels of total AKT
UACC903 melanoma cells
  viability of UACC903 cells: decreased the viability
p53
  level of p53: limited effect
